Earlier results as cited in patent US20170020882A1, “ANTIVIRAL FORMULATION” (MEDA PHARMA SARL, priority 2008, published 2017).

Experiments:
[1] = human, in vivo
cold sore lesions = conditions: human, in vivo

CC(=O)OCC(CCn1cnc2cnc(N)nc21)COC(C)=O [famciclovir]
frequency of aborted lesions [1]: 8%

Nc1nc2c(ncn2CCC(CO)CO)c(=O)[nH]1 [penciclovir]
reduction in healing time (cold sore lesions): 0.7 days | reduction of time to loss of pain (cold sore lesions): 0.6 days
